Test results published in patent publication US20080139536A1, “Benzodiazepines for Treating or Preventing Rsv Infection” (Novartis Pharmaceuticals Corporation, priority 2004, published 2008).

What follows are compounds tested on RSV (RSS strain) (assay: RSV ELISA antigen reduction assay in Hep-2 cells). Conditions: RSV-infected Hep-2 cells, 3 day assay, ELISA OD 490 nm, 7-point dilution 50 μM-0.78 μM.
Assay type: cell-based, Respiratory Syncytial Virus
Method: This was quantified by optical density (OD) measurement.
This assay was set up using all 96 wells of flat-bottomed 96-well plates. The outer wells were not subjected to any greater amount of evaporation than the inner wells during the 3 day assay period. (i.e. No “edge effect” seen).
Plates were set up one day before addition of virus and compounds. The assay then ran for 3 days with ELISA development taking place on the 4th day.
(§1) All 96 wells of a microtitre plate were seeded at a density of 4×10^3 Hep-2 cells/well in 100 μl/well of Growth Medium (GM) consisting of Dulbecco's MEM (DMEM) with Glutamax-1, Sodium Pyruvate, 1000 mg/l glucose and pyridoxine (Invitrogen, catalogue number 21885-025) and supplemented with 10% FBS. (See Plate 1).
A frozen vial of RSV (RSS strain provided by Virogen Ltd) stock solution was removed from the −80 freezer or liquid nitrogen store and diluted to a known Multiplicity of Infection (m.o.i) in Growth Medium.
The m.o.i. was calculated by prior titration of the virus stock (by the ELISA assay method) as the virus input required to achieve a window of at least 0.8 OD units between infected and uninfected control wells.
50 μl of diluted virus was added to infected, “virus+”, wells by multichannel pipette; 50 μl of Growth Medium was added to uninfected, cell control wells (CC) by multichannel pipette. (See Plate 2)
Plates were incubated at 37° C. for 1 hr to allow virus adsorption.
Compounds were made up at 4× strength in GM containing 2% DMSO (a final DMSO concentration in the assay of 0.5%).
(§2) Six compounds were tested on each assay plate as illustrated below. (See Plate 3). Compounds were tested in duplicate wells across a 7-point dilution series (from 50 μM-0.78 μM): in the presence of virus.
Virus infected, untreated wells served as the virus control (VC); Uninfected, untreated wells serve as the cell control (CC). The difference in absorbance between CC and VC wells constitutes the assay window.
200 μl of GM containing 2% DMSO was added to all wells except the ‘50 μM’ or first column, to which 392 μl of GM was added. 8 μl of each test compound was cherry-picked from a thawed Arrow screening plate and transferred to the appropriate well in the ‘50 μM’ column. Since the compound stock was at 10 mM in 100% DMSO, this will maintain the DMSO level at 2% at the top compound concentration.
Using a multichannel pipette, 200 μl was transferred from the 50 μM column to the 25 μM column, then to the 12.5 μM column and so on across the dilution plate creating a serial doubling dilution. Compounds were mixed upon transfer and tips changed between transfers, ensuring also that no compound was transferred to the last column of compound-free wells (0 μM).
The dilution plate was turned lengthways and 50 μl of compound easily transferred by multichannel pipette from the dilution plate to the assay plate, column by column. There was therefore an excess of 100 μl remaining in the dilution plate.
Plates were incubated at 37° C., 5% CO2 for 3 days.
Media was tapped out from wells directly into Virkon (1% solution in water) and plates were washed by immersing in a plastic box containing PBS. 50 μl/well of 75%/25% vol/vol acetone/methanol fixative was added by multichannel pipette and left for 3 mins.
Some 200 μl of blocking solution (2% Marvel in PBS containing 0.05% Tween) was added per well by multichannel pipette. Plates were incubated at 37° C. in a shaking incubator for 60 mins.
RSV mouse monoclonal antibody NCL-RSV3 (Novocastra) was diluted 1/400 in PBS/2% Marvel/0.05% Tween and 50 μl was added per well. Plates were incubated at 37° C. in a shaking incubator for 90 mins.
DAKo rabbit anti-mouse HRP conjugate (DAKO catalogue number P0260) was diluted 1/1000 in PBS/2% Marvel/0.05% Tween and 50 μl was added per well. Plates were incubated at 37° C. in a shaking incubator for 60 mins.
Substrate (SigmaFast OPD) was prepared in advance by dissolving 1 urea tablet in 20 mL water. […]

Compound	IC50 [µM]
O=C(N[C@H]1N=C(c2ccccc2)c2ccccc2NC1=O)c1ccc(F)cc1[N+]1([O-])CCS(=O)(=O)CC1 [Example 5]	< 5
CN(CCS(C)(=O)=O)Cc1ccc(C(=O)N[C@H]2N=C(c3ccccc3)c3ccccc3NC2=O)o1 [Example 37]	< 5
(S)-2-(1,1-Dioxo-1λ6-thiomorpholin-4-yl)-N-(2-oxo-5-phenyl-2,3-dihydro-1H-benzo[e][1,4]diazepin-3-yl)-nicotinamide [Example 22]	> 10
(S)-5-Pyrrolidin-1-ylmethyl-furan-2-carboxylic acid (2-oxo-5-phenyl-2,3-dihydro-1H-benzo[e][1,4]diazepin-3-yl)-amide [Example 9]	5 to 10

Same assay, conditions: human respiratory syncytial virus, 72 h; RSV-infected Hep-2 cells, 3 day assay, ELISA OD 490 nm, 7-point dilution 50 μM-0.78 μM

Compound	IC50 [µM]
O=C(N[C@H]1N=C(c2ccccc2)c2ccccc2NC1=O)c1cc(F)ccc1N1CCS(=O)(=O)CC1 [Example 7, (S)-2-(1,1-Dioxo-1λ6-thiomorpholin-4-yl)-5-fluoro-N-(2-oxo-5-phenyl-2,3-dihydro-1H-benzo[e][1,4]diazepin-3-yl)-benzamide]	< 5
O=C(N[C@H]1N=C(c2ccccc2)c2ccccc2NC1=O)c1cccc(S(=O)(=O)N2CCCCC2)c1 [Example 30, (S)—N-(2-Oxo-5-phenyl-2,3-dihydro-1H-benzo[e][1,4]diazepin-3-yl)-3-(piperidine-1-sulfonyl)-benzamide]	5 to 10
O=C(N[C@H]1N=C(c2ccccc2)c2ccccc2NC1=O)c1cccc(S(=O)(=O)N2CCOCC2)c1 [Example 31, (S)-3-(Morpholine-4-sulfonyl)-N-(2-oxo-5-phenyl-2,3-dihydro-1H-benzo[e][1,4]diazepin-3-yl)-benzamide]	5 to 10
O=C(N[C@H]1N=C(c2ccccc2)c2ccccc2NC1=O)c1ccc(CN2CCOCC2)o1 [Example 32, (S)-5-Morpholin-4-ylmethyl-furan-2-carboxylic acid (2-oxo-5-phenyl-2,3-dihydro-1H-benzo[e][1,4]diazepin-3-yl)-amide]	< 5
O=C(N[C@H]1N=C(c2ccccc2)c2ccccc2NC1=O)c1ccc(CO)o1 [Example 33, (S)-5-Hydroxymethyl-furan-2-carboxylic acid (2-oxo-5-phenyl-2,3-dihydro-1H-benzo[e][1,4]diazepin-3-yl)-amide]	5 to 10
O=C(N[C@H]1N=C(c2ccccc2)c2ccccc2NC1=O)c1ccc(CN2CCS(=O)(=O)CC2)o1 [Example 34, (S)-5-(1,1-Dioxo-1λ6-thiomorpholin-4-ylmethyl)-furan-2-carboxylic acid (2-oxo-5-phenyl-2,3-dihydro-1H-benzo[e][1,4]diazepin-3-yl)-amide]	< 5
O=C(N[C@H]1N=C(c2ccccc2)c2ccccc2NC1=O)c1ccc(N2CCS(=O)(=O)CC2)cc1Cl [Example 35, (S)-2-Chloro-4-(1,1-dioxo-1λ6-thiomorpholin-4-yl)-N-(2-oxo-5-phenyl-2,3-dihydro-1H-benzo[e][1,4]diazepin-3-yl)-benzamide]	< 5
O=C(N[C@H]1N=C(c2ccccc2)c2ccccc2NC1=O)c1cc(N2CCS(=O)(=O)CC2)ccc1Cl [Example 36, (S)-2-Chloro-5-(1,1-dioxo-1λ6-thiomorpholin-4-yl)-N-(2-oxo-5-phenyl-2,3-dihydro-1H-benzo[e][1,4]diazepin-3-yl)-benzamide]	< 5
O=C(N[C@H]1N=C(c2ccccc2)c2ccccc2NC1=O)c1csc(-c2cccnc2)n1 [Example 38, (S)-2-Pyridin-3-yl-thiazole-4-carboxylic acid (2-oxo-5-phenyl-2,3-dihydro-1H-benzo[e][1,4]diazepin-3-yl)-amide]	< 5
O=C(N[C@H]1N=C(c2ccccc2)c2ccccc2NC1=O)c1csc(-c2ccncc2)n1 [Example 39, (S)-2-Pyridin-4-yl-thiazole-4-carboxylic acid (2-oxo-5-phenyl-2,3-dihydro-1H-benzo[e][1,4]diazepin-3-yl)-amide]	< 5
Cc1nc(-c2cnccn2)sc1C(=O)N[C@H]1N=C(c2ccccc2)c2ccccc2NC1=O [Example 40, (S)-4-Methyl-2-pyrazin-2-yl-thiazole-5-carboxylic acid (2-oxo-5-phenyl-2,3-dihydro-1H-benzo[e][1,4]diazepin-3-yl)-amide]	5 to 10
O=C(N[C@H]1N=C(c2ccccc2)c2ccccc2NC1=O)c1ccoc1CN1CCOCC1 [Example 41, (S)-2-Morpholin-4-ylmethyl-furan-3-carboxylic acid (2-oxo-5-phenyl-2,3-dihydro-1H-benzo[e][1,4]diazepin-3-yl)-amide]	< 5
O=C(N[C@H]1N=C(c2ccccc2)c2ccccc2NC1=O)c1cccc(CN2CCOCC2)c1 [Example 42, (S)-3-Morpholin-4-ylmethyl-N-(2-oxo-5-phenyl-2,3-dihydro-1H-benzo[e][1,4]diazepin-3-yl)-benzamide]	< 5
O=C(N[C@H]1N=C(c2ccccc2)c2ccccc2NC1=O)c1cc(CN2CCOCC2)on1 [Example 43, (S)-5-Morpholin-4-ylmethyl-isoxazole-3-carboxylic acid (2-oxo-5-phenyl-2,3-dihydro-1H-benzo[e][1,4]diazepin-3-yl)-amide]	< 5
O=C(N[C@H]1N=C(c2ccccc2)c2ccccc2NC1=O)c1occc1CN1CCOCC1 [Example 44, (S)-3-Morpholin-4-ylmethyl-furan-2-carboxylic acid (2-oxo-5-phenyl-2,3-dihydro-1H-benzo[e][1,4]diazepin-3-yl)-amide]	5 to 10
O=C(N[C@H]1N=C(c2ccccc2)c2ccccc2NC1=O)c1ccc(-c2ccccn2)s1 [Example 45, (S)-5-Pyridin-2-yl-thiophene-2-carboxylic acid (2-oxo-5-phenyl-2,3-dihydro-1H-benzo[e][1,4]diazepin-3-yl)-amide]	< 5
Cc1occ(S(=O)(=O)N2CCOCC2)c1C(=O)N[C@H]1N=C(c2ccccc2)c2ccccc2NC1=O [Example 46, (S)-2-Methyl-4-(morpholin-4-sulfonyl)-furan-3-carboxylic acid (2-oxo-5-phenyl-2,3-dihydro-1H-benzo[e][1,4]diazepin-3-yl)-amide]	5 to 10
O=C(N[C@H]1N=C(c2ccccc2)c2ccccc2NC1=O)c1ccc(N2CCOCC2)nc1 [Example 47, (S)-6-Morpholin-4-yl-N-(2-oxo-5-phenyl-2,3-dihydro-1H-benzo[e][1,4]diazepin-3-yl)-nicotinamide]	< 5
O=C(N[C@H]1N=C(c2ccccc2)c2ccccc2NC1=O)c1sccc1CN1CCOCC1 [Example 48, (S)-3-Morpholin-4-ylmethyl-thiophene-2-carboxylic acid (2-oxo-5-phenyl-2,3-dihydro-1H-benzo[e][1,4]diazepin-3-yl)-amide]	< 5
O=C(N[C@H]1N=C(c2ccccc2)c2ccccc2NC1=O)c1ccc(CN2CCOCC2)s1 [Example 49, (S)-5-Morpholin-4-ylmethyl-thiophene-2-carboxylic acid (2-oxo-5-phenyl-2,3-dihydro-1H-benzo[e][1,4]diazepin-3-yl)-amide]	< 5
O=C(N[C@H]1N=C(c2ccccc2)c2ccccc2NC1=O)c1ncoc1-c1ccccc1 [Example 51, (S)-5-Phenyl-oxazole-4-carboxylic acid (2-oxo-5-phenyl-2,3-dihydro-1H-benzo[e][1,4]diazepin-3-yl)-amide]	< 5

These compounds were tested on Hep-2 cells (assay: Cell toxicity: crystal violet staining and microscopic examination of monolayers). Conditions: Hep-2 monolayers of the assay plates, crystal violet stain, indications of cell toxicity; compounds tested 50 μM-0.78 μM.
Assay type: cell-based
Method: as §1, §2
The wells were emptied, washed in tap water and the monolayers stained with 50 μl/well of 2% crystal violet in 20% methanol/water for at least 1 hour. The wells were then washed and air-dried and the monolayers examined under the microscope for indications of cell toxicity.

Compound	TD50
O=C(N[C@H]1N=C(c2ccccc2)c2ccccc2NC1=O)c1ccc(F)cc1[N+]1([O-])CCS(=O)(=O)CC1 [Example 5]	Tr25
O=C(N[C@H]1N=C(c2ccccc2)c2ccccc2NC1=O)c1cc(F)ccc1N1CCS(=O)(=O)CC1 [Example 7, (S)-2-(1,1-Dioxo-1λ6-thiomorpholin-4-yl)-5-fluoro-N-(2-oxo-5-phenyl-2,3-dihydro-1H-benzo[e][1,4]diazepin-3-yl)-benzamide]	Tr50
